Assay results published in PMC9516332 (Frontiers in Oncology, 2022).
Where two headings read alike, the source gives them in different places.

Columns and labels:
Experiment in all cases: Kinase panel profiling at 1 µmol/L (MSA or IMAP), percentage inhibition
Assay type in all cases: biochemical
[1] = target: panel of 255 wild-type kinases (Homo sapiens, UniProt P07333); conditions: read-out: %-inhibition at 1 µmol/L, FMS
[2] = target: panel of 255 wild-type kinases (Homo sapiens, UniProt P08922); conditions: read-out: %-inhibition at 1 µmol/L, ROS
[3] = target: panel of 255 wild-type kinases (Homo sapiens, UniProt P09619); conditions: read-out: %-inhibition at 1 µmol/L, PDGFRβ
[4] = target: T1, panel of 255 wild-type kinases (Homo sapiens, UniProt P15735); conditions: read-out: %-inhibition at 1 µmol/L, PHKG2
T1 sequence (P15735 1-406): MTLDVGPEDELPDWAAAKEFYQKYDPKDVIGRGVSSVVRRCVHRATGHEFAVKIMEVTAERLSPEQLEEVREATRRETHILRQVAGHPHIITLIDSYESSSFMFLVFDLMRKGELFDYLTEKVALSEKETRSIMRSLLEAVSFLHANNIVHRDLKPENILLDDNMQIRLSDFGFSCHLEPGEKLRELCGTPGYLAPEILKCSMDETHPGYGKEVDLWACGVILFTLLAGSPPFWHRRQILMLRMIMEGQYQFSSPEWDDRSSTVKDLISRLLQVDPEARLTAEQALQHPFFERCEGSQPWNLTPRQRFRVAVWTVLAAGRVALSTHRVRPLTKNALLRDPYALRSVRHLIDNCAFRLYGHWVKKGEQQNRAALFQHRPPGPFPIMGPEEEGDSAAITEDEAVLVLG

[5] = target: panel of 255 wild-type kinases (Homo sapiens, UniProt P48730); conditions: read-out: %-inhibition at 1 µmol/L, CK1δ
[6] = target: panel of 255 wild-type kinases (Homo sapiens, UniProt Q13882); conditions: read-out: %-inhibition BRK
[7] = target: panel of 255 wild-type kinases (Homo sapiens, UniProt Q8IY84); conditions: read-out: %-inhibition, NIM1K
[8] = target: T2, panel of 255 wild-type kinases (Homo sapiens, UniProt Q96BR1); conditions: read-out: %-inhibition at 1 µmol/L, SGK3
T2 sequence (Q96BR1 1-496): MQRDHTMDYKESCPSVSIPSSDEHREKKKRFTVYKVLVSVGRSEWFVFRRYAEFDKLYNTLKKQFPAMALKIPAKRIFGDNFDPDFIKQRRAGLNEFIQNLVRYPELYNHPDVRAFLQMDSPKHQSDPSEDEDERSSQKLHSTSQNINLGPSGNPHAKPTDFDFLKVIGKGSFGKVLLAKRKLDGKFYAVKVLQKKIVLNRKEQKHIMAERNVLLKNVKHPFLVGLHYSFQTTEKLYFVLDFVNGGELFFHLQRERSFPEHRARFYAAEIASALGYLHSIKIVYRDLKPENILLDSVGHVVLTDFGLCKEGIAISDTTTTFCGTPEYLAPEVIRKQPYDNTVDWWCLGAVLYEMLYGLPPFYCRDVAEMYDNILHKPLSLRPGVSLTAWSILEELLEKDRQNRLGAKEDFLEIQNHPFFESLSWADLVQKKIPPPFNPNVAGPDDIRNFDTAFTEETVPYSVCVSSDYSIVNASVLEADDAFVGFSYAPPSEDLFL

[9] = target: T3, panel of 255 wild-type kinases (Homo sapiens, UniProt Q9NRM7); conditions: read-out: %-inhibition at 1 µmol/L, LATS2
T3 sequence (Q9NRM7 1-1088): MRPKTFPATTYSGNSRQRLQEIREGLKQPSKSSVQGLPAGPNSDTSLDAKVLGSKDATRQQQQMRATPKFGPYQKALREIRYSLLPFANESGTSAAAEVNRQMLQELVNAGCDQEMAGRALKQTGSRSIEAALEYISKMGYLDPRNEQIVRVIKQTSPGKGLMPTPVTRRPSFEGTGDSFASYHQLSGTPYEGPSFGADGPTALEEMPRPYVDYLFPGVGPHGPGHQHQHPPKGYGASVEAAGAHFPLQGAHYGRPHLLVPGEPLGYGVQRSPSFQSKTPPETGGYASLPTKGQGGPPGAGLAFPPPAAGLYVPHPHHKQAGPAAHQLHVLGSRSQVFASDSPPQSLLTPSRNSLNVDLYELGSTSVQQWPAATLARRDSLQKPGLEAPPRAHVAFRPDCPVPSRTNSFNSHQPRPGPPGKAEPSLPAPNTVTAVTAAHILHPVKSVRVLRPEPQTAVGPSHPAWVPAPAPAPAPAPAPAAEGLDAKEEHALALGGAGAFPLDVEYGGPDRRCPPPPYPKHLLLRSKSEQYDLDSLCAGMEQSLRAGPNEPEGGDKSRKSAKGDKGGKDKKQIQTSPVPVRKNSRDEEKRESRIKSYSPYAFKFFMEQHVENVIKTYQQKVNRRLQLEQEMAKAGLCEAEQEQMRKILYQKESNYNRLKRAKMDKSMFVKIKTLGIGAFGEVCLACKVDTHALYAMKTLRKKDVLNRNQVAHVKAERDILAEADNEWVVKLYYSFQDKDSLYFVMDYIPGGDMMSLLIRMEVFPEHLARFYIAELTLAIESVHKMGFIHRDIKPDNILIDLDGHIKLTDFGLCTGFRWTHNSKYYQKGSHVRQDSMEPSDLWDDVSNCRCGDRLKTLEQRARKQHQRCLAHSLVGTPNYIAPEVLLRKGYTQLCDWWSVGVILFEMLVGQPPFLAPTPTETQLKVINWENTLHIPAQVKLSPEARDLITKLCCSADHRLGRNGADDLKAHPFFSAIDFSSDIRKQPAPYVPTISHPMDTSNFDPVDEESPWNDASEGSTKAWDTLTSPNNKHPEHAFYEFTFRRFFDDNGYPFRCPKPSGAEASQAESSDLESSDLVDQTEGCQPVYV

[10] = target: panel of 255 wild-type kinases (Homo sapiens, UniProt Q9P286); conditions: read-out: %-inhibition, PAK5
[11] = target: panel of 255 wild-type kinases (Homo sapiens, UniProt Q9Y6M4); conditions: read-out: %-inhibition at 1 µmol/L, CK1γ3
[12] = kinase FMS, 1 µmol/L single concentration
[13] = kinase ROS, 1 µmol/L single concentration
[14] = kinase PDGFRβ, 1 µmol/L single concentration
[15] = kinase PHKG2, 1 µmol/L single concentration
[16] = kinase CK1δ, 1 µmol/L single concentration
[17] = BRK kinase assay, 1 µmol/L single concentration
[18] = NIM1K, 1 µmol/L single concentration
[19] = kinase SGK3, 1 µmol/L single concentration
[20] = kinase LATS2, 1 µmol/L single concentration
[21] = PAK5, 1 µmol/L single concentration
[22] = kinase CK1γ3, 1 µmol/L single concentration

SMILES | inhibition at 1 µM [1, 12] | inhibition at 1 µM [2, 13] | inhibition at 1 µM [3, 14] | inhibition at 1 µM [4, 15] | inhibition at 1 µM [5, 16] | inhibition at 1 µM [6, 17] | inhibition at 1 µM [7, 18] | inhibition at 1 µM [8, 19] | inhibition at 1 µM [9, 20] | inhibition at 1 µM [10, 21] | inhibition at 1 µM [11, 22] | other results
Cc1nc(NC(=O)N2CCC[C@H]2C(N)=O)sc1-c1ccnc(C(C)(C)C(F)(F)F)c1 [alpelisib] | 14% | -6% | 0.0362% | 1.64% | 9% | 2.75% | -1.81% | 1.47% | -1% | -2.58% | -2% | 
Cn1cc(-c2cc3c(N4CCN(c5ncc([C@@](C)(N)c6ccc(F)cc6)cn5)CC4)ncnn3c2)cn1 [avapritinib] |  | 67% | 95% | 5.4% | 11% | 0.682% | 0.427% | -2% | 1.47% | 4.51% | 10% | 
Cn1cnc2c(F)c(Nc3ccc(Br)cc3F)c(C(=O)NOCCO)cc21 [binimetinib] | 7% | 16% | -2.23% | -3.26% | -4% | 1.08% | -2.23% | -0.74% | -3% | 5% | 2.67% | 
CNC(=O)c1ccc(-c2cnc3ncc(Cc4ccc5ncccc5c4)n3n2)cc1F [capmatinib] |  |  |  |  |  |  |  |  |  |  |  | inhibition at 1 µM [1]: 13%; inhibition at 1 µM [2]: 21%; inhibition at 1 µM [3]: 20%; inhibition at 1 µM [4]: 0.266%; inhibition at 1 µM [5]: -1.78%; inhibition at 1 µM [6]: -0.67%; inhibition at 1 µM [7]: -2%; inhibition at 1 µM [8]: -2.49%; inhibition at 1 µM [9]: -7%; inhibition at 1 µM [10]: 0.765%; inhibition at 1 µM [11]: -1.65%
COc1cc2ncnc(Nc3ccc(F)c(Cl)c3)c2cc1NC(=O)/C=C/CN1CCCCC1 [dacomitinib] | 8.55% | 22% | 68% | 11% | -6.63% | 53% | 1.1% | -20% | 11% | 4.29% | -23% | 
C[C@H](Nc1ncnc2nc[nH]c12)c1cc2cccc(Cl)c2c(=O)n1-c1ccccc1 [duvelisib] | 2.22% | -3.53% | 2% | 0.785% | -4.49% | 4.54% | -3.41% | 1.26% | 8% | -1% | -0.689% | 
COC(=O)N[C@@H](C)CNc1nccc(-c2cn(C(C)C)nc2-c2cc(Cl)cc(NS(C)(=O)=O)c2F)n1 [encorafenib] | 8% | 14% | 1.38% | -1.79% | 20% | 25% | -12% | 5% | 3.49% | 0.399% | 10% | 
CN1CCN(c2ccc(C(=O)Nc3n[nH]c4ccc(Cc5cc(F)cc(F)c5)cc34)c(NC3CCOCC3)c2)CC1 [entrectinib] | 86% |  |  | 41% | -5% | 88% | -1.5% | 0.413% | 18% | 25% | 0.879% | 
CCc1nc(C(N)=O)c(Nc2ccc(N3CCC(N4CCN(C)CC4)CC3)c(OC)c2)nc1NC1CCOCC1 [gilteritinib] | 104% | 100% | 105% | 59% | 25% | 98% | 29% | -18% | 44% | 92% | 11% | 
CCN1CCN(c2ccc(Nc3cc(N(C)C(=O)Nc4c(Cl)c(OC)cc(OC)c4Cl)ncn3)cc2)CC1 [infigratinib] | 96% | 29% | 59% | 1.64% | -4.4% | 5.46% | -2.7% | -3% | -3.67% | 2.49% | -1.16% | 
O=C(Nc1cnn2ccc(N3CCC[C@@H]3c3cc(F)ccc3F)nc12)N1CC[C@H](O)C1 [larotrectinib] | -4.31% |  | -0.157% | 5.63% | -8% | 4.64% | -1.85% | -4.61% | -3% | -0.213% | -0.832% | inhibition at 1 µM [2]: 86%
C[C@H]1Oc2cc(cnc2N)-c2c(nn(C)c2C#N)CN(C)C(=O)c2ccc(F)cc21 [lorlatinib] | 32% | 101% | 2.32% | 92% | -6.46% | 63% | 1.32% | 7.56% | 6% | 11% | -1% | 
